Target: T1, CA IX (Homo sapiens, UniProt Q16790)
Test: not given
Settings: library compounds with IDs A… and B…; observed Ki; ref ChEMBL, BindingDB; read-out: Ki; cited from earlier work

| Compound | Ki |
| --- | --- |
| CC(=O)OC[C@H]1O[C@H](CC(=O)/C=C\c2ccc(O)cc2)[C@@H](OC(C)=O)[C@H](OC(C)=O)[C@@H]1OC(C)=O [B0789] | 2900 nM |

Same assay, conditions: read-out: Ki; cited from earlier work

| Compound | Ki |
| --- | --- |
| NS(=O)(=O)c1ccc(C(=O)NCc2cn([C@H]3O[C@@H](CO)[C@H](O)[C@@H](O)[C@@H]3O)nn2)cc1 [B0735] | 442 nM |
| COc1cc(/C=C\C(=O)OCCCCO[N+](=O)[O-])ccc1OC(=O)c1cccc(S(=O)(=O)Nc2nnc(S(N)(=O)=O)s2)c1 [B0659] | 177 nM |

Target: T1, CA IX
Test: biochemical
Settings: not given

| Compound | log10 of Ki in nM |
| --- | --- |
| NS(=O)(=O)c1ccc(-c2cccc(C=O)c2)cc1 [A1584] | 1.993 |
| NS(=O)(=O)c1ccc(-c2cn([C@@H]3O[C@H](CO)[C@@H](O)[C@H](O)[C@H]3O)nn2)cc1 [A1466] | 1.897 |
| CCOc1nc(NCCc2ccc(S(N)(=O)=O)cc2)nc(OCC)n1 [A0719] | 1.079 |
| CCCCCOS(N)(=O)=O [A1675] | 2.100 |
| COc1ccc2c(=O)n(-c3ccc(S(N)(=O)=O)cc3)c(S)nc2c1 [B0440] | 1.653 |
| NS(=O)(=O)c1ccc(C(=O)NNC(=O)Nc2ccc([N+](=O)[O-])cc2)cc1 [A0170] | 0.505 |
| NS(=O)(=O)c1ccc(CNC(=S)N[C@@H]2O[C@H](CO)[C@@H](O)[C@H](O)[C@H]2O)cc1 [A0577] | 0.944 |
| COC(=O)[C@H]1O[C@@H](n2cc(COC(=O)c3ccc(S(N)(=O)=O)cc3)nn2)[C@H](OC(C)=O)[C@@H](OC(C)=O)[C@@H]1OC(C)=O [A1674] | 2.097 |
| Nc1c(C(=O)N/N=C2\C(=O)N(Cc3ccccc3)c3ccccc32)cnn1-c1ccc(S(N)(=O)=O)cc1 [A0861] | 1.301 |
| CC(=O)OC[C@H]1O[C@@H](n2cc(-c3ccc(S(N)(=O)=O)cc3)nn2)[C@H](OC(C)=O)[C@@H](OC(C)=O)[C@@H]1OC(C)=O [A1660] | 2.079 |
| CC(=O)NNc1ccccc1S(N)(=O)=O [A1755] | 2.243 |
| NS(=O)(=O)c1ccc(OCc2ccc(F)cc2)cc1 [A0463] | 0.869 |
| NS(=O)(=O)OCCCCOS(N)(=O)=O [A2532] | 4.732 |

Same assay, conditions: experimental value from the library Ki (IDs A…, B…); values equal log10 of Ki in nM

| Compound | log10 of Ki in nM |
| --- | --- |
| COc1cc(OC)c(/C=C(\C#N)C(=O)Nc2ccc(S(N)(=O)=O)cc2)c(OC)c1 [A0495] | 0.892 |
| CCCN(CCC)S(=O)(=O)c1ccc(C(=O)Nc2ccccc2[N+](=O)[O-])cc1 [A1771] | 2.283 |
| O=c1ccc2ccc(OCc3cn(-c4ccc(C(F)(F)F)cc4)nn3)cc2o1 [A0920] | 1.362 |
| Nc1nc(N)c2nc(CNCCc3ccc(S(N)(=O)=O)cc3)cnc2n1 [A0285] | 0.672 |
| NS(=O)(=O)c1ccc(NC(=O)N2CCN(CCO)CC2)cc1 [A1995] | 2.639 |
| NS(=O)(=O)Nc1ccc(S(=O)(=O)Nc2nnc(S(N)(=O)=O)s2)cc1 [A1288] | 1.716 |
| COc1ccc(-c2cn(-c3ccc(S(N)(=O)=O)cc3)c(=S)[nH]2)cc1 [A1063] | 1.477 |
| COc1ccc(-c2cc(CO)nn2-c2ccc(S(N)(=O)=O)cc2)cc1 [A0859] | 1.301 |
| NS(=O)(=O)c1cnccc1-n1ccc(=O)cc1 [A0836] | 1.262 |
| N#C/C(=C\c1ccc2c(c1)OCO2)C(=O)Nc1ccc(S(N)(=O)=O)cc1 [A0636] | 0.978 |
| COc1ccc(-c2cnc(C3CCC3)o2)cc1S(N)(=O)=O [B0034] | 0.491 |
| COc1ccc2c(c1)/C(=N/c1ccc(C(=O)Nc3ccc(S(N)(=O)=O)cc3)cc1)C(=O)N2 [A1756, reference compound] | 2.243 |
| CCCN(CCC)S(=O)(=O)c1ccc(C(=O)N[C@@H](CCC(=O)O)C(N)=O)cc1 [A0921] | 1.362 |
| CCCN(CCC)S(=O)(=O)c1ccc(C(=O)N[C@@H](Cc2c[nH]c3ccccc23)C(N)=O)cc1 [A0923] | 1.362 |
| Cc1ccc(-c2cc(CO)nn2-c2ccc(S(N)(=O)=O)cc2)cc1 [A0902] | 1.342 |
| CN(C)c1ccc(/N=N/c2ccc(S(N)(=O)=O)cc2)cc1 [A0408] | 0.820 |
| NS(=O)(=O)c1ccc(NCc2cc(Br)ccc2O)cc1 [A0114] | 0.415 |
| NS(=O)(=O)c1ccc(CNC(=O)CCCNC(=O)NCc2ccccc2)cc1 [A2003] | 2.660 |
| NS(=O)(=O)c1ccc(-c2cnc(C3CCC3)o2)cc1 [B0121] | 0.813 |

Same assay, conditions: experimental value used for the QSPR model, library compounds (IDs A…, B…); equals log10 of Ki in nM

| Compound | log10 of Ki in nM |
| --- | --- |
| N#Cc1c(-c2ccc(Br)cc2)cn(-c2ccc(S(N)(=O)=O)cc2)c1NC(=S)Nc1ccc(Br)cc1 [A1551] | 1.960 |
| O=S1(=O)C=Cc2cc(-n3cc(C4CC4)nn3)ccc2O1 [A1333] | 1.782 |
| NS(=O)(=O)c1ccc(Nc2nc(Nc3ccccc3)nc(N3CCOCC3)n2)cc1 [A0867] | 1.303 |
| CC(C)(F)CNS(=O)(=O)c1ccc(N)cc1 [A1490] | 1.919 |
| Cc1c(C(=O)NCCN(C)C)cc(-c2ccc(-c3ccccc3)cc2)n1-c1ccc(S(N)(=O)=O)cc1 [A1493] | 1.919 |
| NS(=O)(=O)c1cc(-c2cnc(C3CC3)o2)cs1 [B0238] | 1.114 |
| NS(=O)(=O)c1ccc(CCNC(=S)Nc2ccc(C(=O)O)cc2)cc1 [A0666] | 1.000 |
| NS(=O)(=O)c1ccc(-n2cc(-c3ccc(Br)cc3)c3c2ncn2nc4c5ccccc5nc-4nc32)cc1 [B0025] | 0.431 |
| NS(=O)(=O)c1ccc(-n2c(S)nc3cc(F)ccc3c2=O)cc1 [A0315] | 0.708 |
| CC(=O)OC[C@H]1O[C@@H](SCc2nnn(-c3ccc(S(N)(=O)=O)cc3)c2C#CCO)[C@H](OC(C)=O)[C@@H](OC(C)=O)[C@@H]1OC(C)=O [A1422] | 1.857 |
| NS(=O)(=O)c1ccc(NC2=NC(=O)/C(=N/Nc3ccc(Cl)cc3)S2)cc1 [B0138] | 0.863 |
| NS(=O)(=O)c1ccc(/N=C/c2ccccc2)c(F)c1 [A1026] | 1.447 |
| CC(C)(C)OC(=O)NCCCCOc1ccc(S(N)(=O)=O)cc1 [A0486] | 0.886 |
| Cc1ccc(-n2c(=S)[nH]c3c(c(-c4ccc(Br)cc4)cn3-c3ccc(S(N)(=O)=O)cc3)c2=N)cc1 [A1740] | 2.210 |
| C#CCOc1ccc(S(N)(=O)=O)cc1 [A0523] | 0.914 |
| Cc1ccc(NC(=S)NNC(=O)c2ccccc2O)cc1 [A2191] | 3.095 |
| CC(=O)N1C(=O)/C(=N\n2cnc3c(c(-c4ccc(Br)cc4)cn3-c3ccc(S(N)(=O)=O)cc3)c2=N)c2ccccc21 [B0037] | 0.491 |
| Nc1c(Br)cc(S(N)(=O)=O)cc1I [A1512] | 1.934 |
| CCCC(=O)OC[C@H]1O[C@@H](n2cc(-c3ccc(S(N)(=O)=O)cc3)nn2)[C@H](OC(=O)CCC)[C@@H](OC(=O)CCC)[C@H]1OC(=O)CCC [A1285] | 1.714 |
| Cc1cc(C)c(S(=O)(=O)Nc2ccc(C3C4=C(CC(C)(C)CC4=O)N(c4ccc(S(N)(=O)=O)cc4)C4=C3C(=O)CC(C)(C)C4)cc2)c(C)c1 [A1534] | 1.954 |
| O=S1(=O)C=Cc2cc(-n3cnnn3)ccc2O1 [A1395] | 1.836 |

Same assay, conditions: library compounds with IDs A… and B…; from observed Ki (nM)

| Compound | log10 of Ki in nM |
| --- | --- |
| Cc1cc(=O)oc2cc(-n3cc(CSc4ccccc4)nn3)ccc12 [A1053] | 1.471 |
| NS(=O)(=O)c1ccc(NC(=O)c2ccc(/N=C3\C(=O)Nc4ccc(F)cc43)cc2)cc1 [A0310] | 0.699 |
| Nc1cc(Nc2ccc(S(N)(=O)=O)cc2)nc(N)n1 [A0250] | 0.591 |
| COc1ccc2c(c1)/C(=N\NC(=O)c1cnn(-c3ccc(S(N)(=O)=O)cc3)c1-c1ccccc1)C(=O)N2 [B0041] | 0.519 |
| NS(=O)(=O)c1ccc(CNC(=O)Cc2ccccc2)cc1 [A1701] | 2.134 |
| Cc1c(C(=O)N2CCN(C)CC2)cc(-c2ccc3ccccc3c2)n1-c1ccc(S(N)(=O)=O)cc1 [A1687] | 2.124 |
| Cc1ccc(-c2cnc(C3CC3)o2)cc1S(N)(=O)=O [B0710] | 2.502 |
| O=S1(=O)C=Cc2cc(-n3cc(-c4cccc(F)c4)nn3)ccc2O1 [A0598] | 0.954 |
| NS(=O)(=O)c1ccc(/N=c2\scc(-c3ccc(Br)cc3)n2C2CCCCC2)cc1 [A1905] | 2.442 |
| Cc1ccc(-c2cnc(C3CC3)o2)cc1S(N)(=O)=O [A1938] | 2.502 |
| O=C1NS(=O)(=O)c2cc([N+](=O)[O-])ccc21 [A1570] | 1.981 |
| NC(=S)NNC(=O)c1ccncc1 [A2157] | 2.988 |
| Cc1cc(C)cc(NC(=O)Nc2ccc3c(C)cc(=O)oc3c2)c1 [A2046] | 2.785 |
| COc1ccc2c(c1)/C(=N\c1ccc(NC(=O)Nc3ccc(S(N)(=O)=O)cc3)cc1)C(=O)N2 [B0174] | 0.929 |
| NS(=O)(=O)c1ccc(-n2cc(-c3ccc(Br)cc3)c3c2ncn2nnnc32)cc1 [B0028] | 0.447 |
| CCOC(=O)c1ccc(NC(=O)NNC(=O)c2ccc(S(N)(=O)=O)cc2)cc1 [A0551] | 0.929 |
| CCCN(CCC)S(=O)(=O)c1ccc(C(=O)NCC)cc1 [A1724] | 2.179 |
| NS(=O)(=O)OC1CCN(S(=O)(=O)[C@@H]2O[C@H](CO)[C@@H](O)[C@H](O)[C@H]2O)CC1 [A0701] | 1.041 |
| CC1(C)CC(=O)C2=C(C1)N(c1ccc(S(N)(=O)=O)cc1)C1=C(C(=O)CC(C)(C)C1)C2c1cccc([N+](=O)[O-])c1 [A1986] | 2.623 |

Same assay, conditions: library compounds with IDs A… and B…; from observed Ki (nM); read-out: pKi (exp.) (converted)

| Compound | Ki |
| --- | --- |
| CC(=O)OC[C@H]1O[C@H](CC(=O)/C=C\c2ccc(O)cc2)[C@@H](OC(C)=O)[C@H](OC(C)=O)[C@@H]1OC(C)=O [B0789] | 2900 nM |
| CC(C)CCC[C@@H](C)[C@H]1CC[C@@H]2[C@@H]1CC[C@H]1[C@H]2CC=C2C[C@@H](OS(N)(=O)=O)CC[C@@]21C [A2177] | 1000 nM |

Same assay, conditions: read-out: pKi (exp.) (converted)

| Ki | Compound |
| --- | --- |
| 442 nM | NS(=O)(=O)c1ccc(C(=O)NCc2cn([C@H]3O[C@@H](CO)[C@H](O)[C@@H](O)[C@@H]3O)nn2)cc1 [B0735] |
| 177 nM | COc1cc(/C=C\C(=O)OCCCCO[N+](=O)[O-])ccc1OC(=O)c1cccc(S(=O)(=O)Nc2nnc(S(N)(=O)=O)s2)c1 [B0659] |
| 10000 nM | CCOC(=O)c1cc(S(N)(=O)=O)c(SSc2cc(Cl)c(C(=O)OCC)cc2S(N)(=O)=O)cc1Cl [A2456] |

From paper PMC6151961 (Journal of Enzyme Inhibition and Medicinal Chemistry, 2018)
